Measured values: patent US20050250784A1 (Miikana Therapeutics Corporation, priority 2004, published 2005)

Assays:
[1] = system: MCF7 cells; assay: Whole cell cytotoxicity assay: Sulforhodamine B; assay type: cell-based, Human; settings: compound concentration 100 μM, MCF7 cell growth, 48 hours with drug, SRB staining; for inhibition at 100 µM: Homo sapiens
Experimental: The following procedure can be found on the Developmental Therapeutics Program NCI/NIH web site at http://dtp.nci.nih.gov/brancehes/btb/ivclsp.html.
1. Human tumor cell lines of HT29, A549 and MCF7 are grown in DMEM containing 10% fetal bovine serum and 2 mM L-glutamine. Cells are plated in a 96 well plate at a density of 5000 cells per well in 100 uL of growth medium and incubated at 37° C., 5% CO2, for 24 hours prior to the addition of experimental compounds.
2. Experimental drugs are solubilized in DMSO for a final concentration of 20 mM immediately prior to use. Drugs are further diluted in growth media for a total of nine drug concentrations and a growth control. At the 24 hour time point, one plate of cells is fixed in situ with TCA as a measurement of the cell population at time zero, or the time of drug addition.
3. The plates are further incubated with drug for an additional 48 hours.
4. The cells are fixed in situ by gently aspirating off the culture media and then adding 50 uL of ice cold 10% TCA per well and incubated at 4° C. for 60 minutes. The plates are washed with tap water five times and allowed to air dry for 5 minute.
5. 50 ul of a 0.4% (w/v) Sulforhodamine B solution in 1% (v/v) acetic acid is added per well and incubated for 30 minutes at room temperature.
6. Following staining, plates are washed five times with 1% acetic acid to remove any unbound dye and then allowed to air dry for 5 minutes.
7. Stain is solubilized with 100 uL of 10 mM Tris pH 10.5 per well and placed on an orbital rotator for 5 minutes.
8. Absorbance is read at 570 nm.

[2] = system: HDAC (HeLa cell nuclear extract, a mosaic of HDAC enzymes); assay: In vitro fluorescent histone deacetylase assay (Biomol HDAC fluorescent activity kit); assay type: biochemical; settings: compound concentration 100 μM; HeLa cell nuclear extract as HDAC source; substrate 50 μM, 10 min, room temperature
Experimental: Histone deacetylase (HDAC) activity assays were performed using the HDAC fluorescent activity assay/drug discovery kit (Biomol Research Laboratories, Plymouth Meeting, Pa.) essentially according to the manufacturer's instructions. The included HeLa cell nuclear extract, which contains a mosaic of HDAC enzymes and other nuclear factors, was used as the source of HDAC activity. The final substrate concentration in the assay mixture was 50 μM. The reaction was allowed to proceed for 10 min at room temperature before stopping the reaction. Test compounds were prepared as 20 mM stock solutions in DMSO (Molecular Biology grade, Sigma-Aldrich Co., St. Louis, Mo.) and stored at −70° C. Serial dilutions of test compounds were prepared in assay buffer immediately prior to testing. DMSO was determined in a separate trial to have no significant effect on the activity of this assay at concentrations up to 5%; the final DMSO concentration in the wells was no more than 2% and therefore DMSO effects were safely neglected. Assays were performed in white polystyrene 96-well half-area assay plates (Corning, Corning, N.Y.) and measured on a Wallace 1420 fluorescent plate reader (Wallac Oy, Turku, Finland) with an excitation wavelength of 355 nm, an emission wavelength of 460 nm, and a 1 sec signal averaging time.

With “2-(4-{4-[(3-(pyrrolidin-1-ylmethyl)-2-furyl]phenylsulfonyl}piperazin-1-yl)-1,3-thiazole-5-carboxylic acid hydroxyamide [Example 283]” as the molecule, how does the “% inhibition MCF7 cells @ 100 μM” value [1] read?
The value was 98%.

For “2-[4-(naphtha-2-yl-4-sulfonyl)-piperazin-1-yl]-thiazole-5-carboxylic acid hydroxyamide [Example 201]”, which “% inhibition MCF7 cells @ 100 μM” value [1] is on record?
The value was 95%.

How did the “% inhibition MCF7 cells @ 100 μM” value [1] turn out when `Cc1ccc(S(=O)(=O)N2CCN(c3ncc(C(=O)NO)s3)CC2)cc1` [Example 204, 2-[4-(4-toluene-4-sulfonyl)-piperazin-1-yl]-thiazole-5-carboxylic acid hydroxyamide] was run?
Its value is 95.4%.

`Cc1cccc(Cl)c1S(=O)(=O)N1CCN(c2ncc(C(=O)NO)s2)CC1` [Example 238, 2-[4-(2-methyl-6-chlorophenylsulfonyl)-piperazin-1-yl]-thiazole-5-carboxylic acid hydroxyamide] was tested. Which “% inhibition HDAC @ 100 μM” value [2] did it give?
The value was 100%.

With `O=C(NO)c1cnc(N2CCN(S(=O)(=O)c3ccc(-c4csc(CN5CCCC5)c4)cc3)CC2)s1` [Example 307, 2-{4-[4-(2-(pyrrolidin-1-ylmethyl)thien-4-yl)phenylsulfonyl]piperazin-1-yl}-1,3-thiazole-5-carboxylic acid hydroxyamide] as the molecule, how does the inhibition at 100 µM [1] read?
Its inhibition at 100 µM is 99%.

With `CN(C)Cc1ccoc1-c1ccc(S(=O)(=O)N2CCN(c3ncc(C(=O)NO)s3)CC2)cc1` [Example 308, 2-(4-{4-[3-((dimethylamino)-methyl)-2-furyl]phenylsulfonyl}piperazin-1-yl)-1,3-thiazole-5-carboxylic acid hydroxyamide] as the molecule, how does the inhibition at 100 µM [1] read?
Its inhibition at 100 µM is 99%.

With `O=C(NO)c1cnc(N2CCN(S(=O)(=O)c3ccc(-c4cc(CN5CCCC5)co4)cc3)CC2)s1` [Example 309] as the molecule, how does the inhibition at 100 µM [1] read?
The inhibition at 100 µM was 83%.

`CN(C)Cc1ccsc1-c1ccc(S(=O)(=O)N2CCN(c3ncc(C(=O)NO)s3)CC2)cc1` [Example 310] was tested. Which inhibition at 100 µM [1] did it give?
The inhibition at 100 µM was 98%.

How did the inhibition at 100 µM [1] turn out when `CN(CCO)Cc1cccc(-c2ccc(S(=O)(=O)N3CCN(c4ncc(C(=O)NO)s4)CC3)cc2)c1` [Example 311, 2-{4-[3′-{[(2-hydroxyethyl)(methyl)amino]methyl}-1,1′-biphenylsulfonyl]piperazin-1-yl}-1,3-thiazole-5-carboxylic acid hydroxyamide] was run?
The inhibition at 100 µM was 98%.

With `O=C(NO)c1cnc(N2CCN(S(=O)(=O)c3ccc(-c4cccc(CN(CCO)CCO)c4)cc3)CC2)s1` [Example 312, 2-{4-[3′-{[bis(2-hydroxyethyl)amino]methyl}-1,1′-biphenylsulfonyl]piperazin-1-yl}-1,3-thiazole-5-carboxylic acid hydroxyamide] as the molecule, how does the inhibition at 100 µM [1] read?
Its inhibition at 100 µM is 85%.

Which inhibition at 100 µM [1] does the source give for `O=C(NO)c1cnc(N2CCN(S(=O)(=O)c3ccc(-c4cccc(CN5CC=CCC5)c4)cc3)CC2)s1` [Example 313, 2-{4-[3′-(3,6-dihydropyridin-1(2H)-ylmethyl)-1,1-biphenylsulfonyl]piperazin-1-yl}-1,3-thiazole-5-carboxylic acid hydroxyamide] here?
Its inhibition at 100 µM is 92%.

With `CCCCN(C)Cc1cccc(-c2ccc(S(=O)(=O)N3CCN(c4ncc(C(=O)NO)s4)CC3)cc2)c1` [Example 314, 2-{4-[3′-{[(butyl)(methyl)amino]methyl}-1,1′-biphenylsulfonyl]piperazin-1-yl}-1,3-thiazole-5-carboxylic acid hydroxyamide] as the molecule, how does the inhibition at 100 µM [1] read?
The inhibition at 100 µM was 97%.

For `O=C(NO)c1cnc(N2CCN(S(=O)(=O)c3ccc(-c4cccc(CN5CCNCC5)c4)cc3)CC2)s1` [Example 315, 2-{4-[3′-((piperazin-1-yl)methyl)-1,1′-biphenylsulfonyl]piperazin-1-yl}-1,3-thiazole-5-carboxylic acid hydroxyamide], which inhibition at 100 µM [1] is on record?
The inhibition at 100 µM was 95%.

With `COCCN(C)Cc1cccc(-c2ccc(S(=O)(=O)N3CCN(c4ncc(C(=O)NO)s4)CC3)cc2)c1` [Example 316, 2-{4-[3′-{[(2-methoxyethyl)(methyl)amino]methyl}-1,1′-biphenylsulfonyl]piperazin-1-yl}-1,3-thiazole-5-carboxylic acid hydroxyamide] as the molecule, how does the inhibition at 100 µM [1] read?
Its inhibition at 100 µM is 97%.

For `C=CCN(CC=C)Cc1cccc(-c2ccc(S(=O)(=O)N3CCN(c4ncc(C(=O)NO)s4)CC3)cc2)c1` [Example 317], which inhibition at 100 µM [1] is on record?
The inhibition at 100 µM was 66%.

Which inhibition at 100 µM [1] does the source give for `CNCc1cccc(-c2ccc(S(=O)(=O)N3CCN(c4ncc(C(=O)NO)s4)CC3)cc2)c1` [Example 318, 2-{4-[3′-{[methylamino]methyl}-1,1′-biphenylsulfonyl]piperazin-1-yl}-1,3-thiazole-5-carboxylic acid hydroxyamide] here?
The inhibition at 100 µM was 86%.

Which inhibition at 100 µM [1] does the source give for `CC(=O)NCc1cccc(-c2ccc(S(=O)(=O)N3CCN(c4ncc(C(=O)NO)s4)CC3)cc2)c1` [Example 319, 2-{4-[3′-{[N-acetylamino]methyl}-1,1′-biphenylsulfonyl]piperazin-1-yl}-1,3-thiazole-5-carboxylic acid hydroxyamide] here?
The inhibition at 100 µM was 89%.

`COCc1cccc(-c2ccc(S(=O)(=O)N3CCN(c4ncc(C(=O)NO)s4)CC3)cc2)c1` [Example 320, 2-{4-[3′-{methoxymethyl}-1,1′-biphenylsulfonyl]piperazin-1-yl}-1,3-thiazole-5-carboxylic acid hydroxyamide] was tested. Which inhibition at 100 µM [1] did it give?
Its inhibition at 100 µM is 92%.

For `O=C(NO)c1cnc(N2CCN(S(=O)(=O)c3ccc(-c4ccccc4CN4CCCC4)cc3)CC2)s1` [Example 321, 2-{4-[2′-{pyrrolidin-1-ylmethyl}-1,1′-biphenylsulfonyl]piperazin-1-yl]-1,3-thiazole-5-carboxylic acid hydroxyamide], which inhibition at 100 µM [1] is on record?
Its inhibition at 100 µM is 95%.

With `O=C(NO)c1cnc(N2CCN(S(=O)(=O)c3cccc(OC(F)F)c3)CC2)s1` [Example 323, 2-(4-{[3-(difluoromethoxy)phenyl]sulfonyl}piperazin-1-yl)-1,3-thiazole-5-carboxylic acid hydroxyamide] as the molecule, how does the inhibition at 100 µM [1] read?
Its inhibition at 100 µM is 100%.

How did the inhibition at 100 µM [1] turn out when `Cc1ccc(S(=O)(=O)N2CCN(c3ncc(C(=O)NO)s3)CC2)cc1[N+](=O)[O-]` [Example 324, 2-{4-[(4-methyl-3-nitrophenyl)sulfonyl]piperazin-1-yl}-1,3-thiazole-5-carboxylic acid hydroxyamide] was run?
Its inhibition at 100 µM is 96%.

With `COc1ccc(OC)c(S(=O)(=O)N2CCN(c3ncc(C(=O)NO)s3)CC2)c1` [Example 325, 2-{4-[(2,5-dimethoxyphenyl)sulfonyl]piperazin-1-yl}-1,3-thiazole-5-carboxylic acid hydroxyamide] as the molecule, how does the inhibition at 100 µM [1] read?
The inhibition at 100 µM was 98%.

With `Cc1ccc(C)c(S(=O)(=O)N2CCN(c3ncc(C(=O)NO)s3)CC2)c1` [Example 326, 2-{4-[(2,5-dimethylphenyl)sulfonyl]piperazin-1-yl}-1,3-thiazole-5-carboxylic acid hydroxyamide] as the molecule, how does the inhibition at 100 µM [1] read?
Its inhibition at 100 µM is 98%.

How did the inhibition at 100 µM [1] turn out when `Cc1ccc(S(=O)(=O)N2CCN(c3ncc(C(=O)NO)s3)CC2)c(CN2CCCC2)c1` [Example 327, 2-(4-{[2-(pyrrolidin-1-ylmethyl)-4-methylphenyl]sulfonyl}piperazin-1-yl)-1,3-thiazole-5-carboxylic acid hydroxyamide] was run?
Its inhibition at 100 µM is 92%.

With `O=C(NO)c1cnc(N2CCN(S(=O)(=O)c3ccc(N4CCCC4)c(F)c3)CC2)s1` [Example 328, 2-(4-{[3-fluoro-4-(pyrrolidin-1-yl)phenyl]sulfonyl}piperazin-1-yl)-1,3-thiazole-5-carboxylic acid hydroxyamide] as the molecule, how does the inhibition at 100 µM [1] read?
Its inhibition at 100 µM is 96%.

With `O=C(NO)c1cnc(N2CCN(S(=O)(=O)c3ccc(N4CCCCC4)cc3)CC2)s1` [Example 329, 2-(4-{[4-(piperidin-1-yl)phenyl]sulfonyl}piperazin-1-yl)-1,3-thiazole-5-carboxylic acid hydroxyamide] as the molecule, how does the inhibition at 100 µM [1] read?
Its inhibition at 100 µM is 97%.

Which inhibition at 100 µM [1] does the source give for `O=C(NO)c1cnc(N2CCN(S(=O)(=O)c3ccc(N4CCOCC4)cc3)CC2)s1` [Example 330, 2-(4-{[4-(morpholin-4-yl)phenyl]sulfonyl}piperazin-1-yl)-1,3-thiazole-5-carboxylic acid hydroxyamide] here?
Its inhibition at 100 µM is 91%.

For `O=C(NO)c1cnc(N2CCN(S(=O)(=O)C(F)(F)F)CC2)s1` [Example 331, 2-{4-[(trifluoromethyl)sulfonyl]piperazin-1-yl}-1,3-thiazole-5-carboxylic acid hydroxyamide], which inhibition at 100 µM [1] is on record?
The inhibition at 100 µM was 76%.

For `CCS(=O)(=O)N1CCN(c2ncc(C(=O)NO)s2)CC1` [Example 332, 2-{4-[ethylsulfonyl]piperazin-1-yl}-1,3-thiazole-5-carboxylic acid hydroxyamide], which inhibition at 100 µM [1] is on record?
Its inhibition at 100 µM is 30%.
